Laboratory results reported in paper PMC7992156 (ACS Omega, 2021).
Counter-ions that a name gives are not always drawn.

Biological target: T1, irisin (Homo sapiens, UniProt Q8NAU1)
T1 sequence (Q8NAU1 80-191): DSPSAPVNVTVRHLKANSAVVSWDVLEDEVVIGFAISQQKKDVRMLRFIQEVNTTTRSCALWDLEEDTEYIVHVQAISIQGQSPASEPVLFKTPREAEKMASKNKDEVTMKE
Assay: isothermal titration calorimetry
Format: binding

CCN(C)C(=O)Oc1cccc([C@H](C)N(C)C)c1 [RT, rivastigmine tartrate]
Kd: 14.4 µM
